Assay results reported in the NIST ThermoML archive (doi:10.1021/acs.jced.7b00945).
± gives the expanded uncertainty stated by the source.

Experiments:
[1] = refractive index (Na D-line) (dimensionless); wn = mass fraction of the nth substance listed; settings: 303 K, 100 kPa, Liquid, Standard Abbe refractometry
[2] = refractive index (Na D-line) (dimensionless); settings: 303 K; 100 kPa; Liquid; Standard Abbe refractometry

Row | Compound | refractive index ([1]; w2 = 0.3) | refractive index ([1]; w2 = 0.41) | refractive index ([1]; w2 = 0.5) | refractive index ([1]; w2 = 0.6) | refractive index ([1]; w2 = 0.7) | refractive index ([1]; w2 = 0.8) | refractive index ([1]; w1 = 1) | also measured
1 | OCCO [1,2-ethanediol] + O | 1.4008 ± 0.00038 | 1.38994 ± 0.00038 | 1.38106 ± 0.00038 | 1.37126 ± 0.00038 | 1.36074 ± 0.00038 | 1.35122 ± 0.00038 | – | refractive index ([1]; w2 = 0.1): 1.4196 ± 0.00038; refractive index ([1]; w2 = 0.2): 1.41005 ± 0.00038; refractive index ([1]; w2 = 0.89): 1.34168 ± 0.00037
2 | OCCOCCO [diethylene glycol] + O | 1.41341 ± 0.00041 | 1.40107 ± 0.00042 | 1.38922 ± 0.00041 | 1.37817 ± 0.0004 | 1.36617 ± 0.0004 | 1.35413 ± 0.0004 | – | refractive index ([1]; w2 = 0.11): 1.43408 ± 0.00043; refractive index ([1]; w2 = 0.2): 1.42406 ± 0.00042; refractive index ([1]; w2 = 0.9): 1.34259 ± 0.00039
3 | OCCOCCOCCO [triethylene glycol] + O | 1.41992 ± 0.00042 | 1.40643 ± 0.00043 | 1.39413 ± 0.00042 | 1.38175 ± 0.00042 | 1.36838 ± 0.00041 | 1.35616 ± 0.0004 | – | refractive index ([1]; w2 = 0.1): 1.44204 ± 0.00042; refractive index ([1]; w2 = 0.21): 1.43047 ± 0.00042; refractive index ([1]; w2 = 0.9): 1.34378 ± 0.0004
4 | O [water] | – | – | – | – | – | – | – | refractive index [2]: 1.33179 ± 0.00032
5 | O [water] + OCCO | – | – | – | – | – | – | 1.33179 ± 0.00032 | –
6 | O [water] + OCCOCCO | – | – | – | – | – | – | 1.33179 ± 0.00032 | –
7 | O [water] + OCCOCCOCCO | – | – | – | – | – | – | 1.33179 ± 0.00032 | –
8 | O [water] + OCCOCCOCCOCCO | – | – | – | – | – | – | 1.33179 ± 0.00032 | –
